Counter-ions that a name gives are not always drawn.
Legend:
[1] = test system: NAD+ levels in skeletal muscle; test: NAD+ level in skeletal muscle of mice after a single oral dose (LC/MS), ratio to vehicle control; type: in vivo; conditions: soleus skeletal muscle, single oral gavage in PBS, generally 500 mg/ml (in some cases 250 mg/kg or ethanol/PBS/PEG400), fasted male C57/BL6 mice; for ratio of mean NAD+ concentration in treated mice compared to vehicle control mice, 4 hr skeletal: 4 hr post-dose; for ratio of mean NAD+ concentration in treated mice compared to vehicle control mice, 8 hr skeletal: 8 hr post-dose; for ratio of mean NAD+ concentration in treated mice compared to vehicle control mice, 24 hr skeletal: 24 hr post-dose
Protocol: (§1) As the compounds disclosed herein can act as prodrugs for NMN, their biological activity was assessed in vivo by measuring the ability to elevate NAD+ levels in liver and skeletal muscle. These tissues were selected for pharmacodynamics studies due to their relevance for the treatment of metabolic diseases. In general, C57/BL6 mice were fasted from 16 hours, then administered a […] oral dose of a disclosed compound in PBS buffer by oral gavage. In some cases, the dose was 250 mg/kg or in an alternate vehicle: ethanol/PBS/PEG400 (10/30/60). After dosing, the mice were sacrificed at pre-set time points after dosing (generally 4, 8 and 24 hours). The liver and skeletal tissues were removed and flash frozen. After some period of frozen storage, tissue homogenates were prepared. The level of NAD+ was quantified using LC/MS methods.
(§2) For bioanalysis, a method of standard addition was used to quantify the NAD. Each homogenate was divided and certain aliquots had known concentrations of exogenous NAD added. The NAD present in the original sample was then calculated by linear regression. Data are presented as a ratio of mean NAD concentration in treated mouse tissues to mean NAD concentration in the vehicle control group tissues at the paired time points.
(§3) Mixtures of compound and PBS, pH 7 were formulated ˜1 hour before dosing and remained stirring until dose completion. Residual formulated test materials were stored at −20±5° C. until discarded. Naïve male C57/BL6 mice at ˜25 g at dose initiation, age as appropriate for weight were assigned to dose groups of six animals per dose. Dosing treatments were administered via a single oral gavage dose (PO) The dose volume for each animal (5 mL/kg) was based on the most recent body measurements taken the morning of dosing. Animals were fasted at least 16 hrs prior to dose, with food returned at least 4 hours post dose.
(§4) Liver and skeletal muscle were collected and analyzed for nicotinamide adenine dinucleotide (NAD) at 0, 4, 8, and 24 hours post-dose. For each mouse, the entire liver was removed, rinsed with saline, blotted dry and frozen at −70° C. to store for NAD concentration analysis. Also, the soleus skeletal muscle was removed from the gastrocnemius, rinsed with saline, blotted dry and frozen at −70° C. to store for NAD concentration analysis.
(§5) • 1. Add 5× (tissue wt.*5)mL 0.1M ZnSO4 into all tubes. • 2. Add 5× (tissue wt*5)mL Methanol into all tubes. • 3. Homogenize each sample until completely liquid. • 4. Vortex each sample. Tissue Extraction Procedure • 1. On ice, aliquot 20 μL of standards, control blanks, and matrix blanks into a 96-well plate. • 2. Aliquot 20 μL of sample into sample wells. • 3. Add 1004, of IS in 80:20 Methanol:water into each well, except blanks add 100 μL of blank 80:20 Methanol:Water. • 4. Cover plate and vortex samples. Centrifuge for 10 minutes at 3300 rpm. • 5. Transfer 80 μL of supernatant into a clean 96-well plate. • 6. Add 80 μL of LC-MS water to all wells. • 7. Cover and vortex. The concentration of NAD+ in the tissues was determined by LC/MS. The conditions are as follows:
(§6) The ratio of mean NAD+ concentration in the liver and skeletal tissues of treated mice compared to vehicle control mice are given in Table 5. The data is given for the 4, 8, and 24 hour time points.

[2] = test system: NAD+ levels in liver; test: NAD+ level in liver of mice after a single oral dose (LC/MS), ratio to vehicle control; type: in vivo; conditions: single oral gavage in PBS, generally 500 mg/ml (in some cases 250 mg/kg or ethanol/PBS/PEG400), fasted male C57/BL6 mice; for ratio of mean NAD+ concentration in treated mice compared to vehicle control mice, 4 hr liver: 4 hr post-dose; for ratio of mean NAD+ concentration in treated mice compared to vehicle control mice, 8 hr liver: 8 hr post-dose; for ratio of mean NAD+ concentration in treated mice compared to vehicle control mice, 24 hr liver: 24 hr post-dose
Protocol: as §1, §2, §3, §4, §5, §6

Structure (SMILES)	ratio of mean NAD+ concentration in treated mice compared to vehicle control mice, 4 hr skeletal [1]	ratio of mean NAD+ concentration in treated mice compared to vehicle control mice, 8 hr skeletal [1]	ratio of mean NAD+ concentration in treated mice compared to vehicle control mice, 24 hr skeletal [1]	ratio of mean NAD+ concentration in treated mice compared to vehicle control mice, 4 hr liver [2]	ratio of mean NAD+ concentration in treated mice compared to vehicle control mice, 8 hr liver [2]	ratio of mean NAD+ concentration in treated mice compared to vehicle control mice, 24 hr liver [2]
CC(C)OC(=O)[C@H](C)NP(=O)(OCC1O[C@@H]([n+]2cccc(C(N)=O)c2)[C@H](O)[C@@H]1O)Oc1ccccc1 (stereo partly drawn) [Compound 4, Isopropyl ((((3S,4R,5R)-5-(3-carbamoyl-1λ4-pyridin-1-yl)-3,4-dihydroxytetrahydrofuran-2-yl)methoxy)(phenoxy)phosphoryl)-L-alaninate Trifluoroacetate Salt]	0.9	1.4	1.1	1.0	1.7	1.8
CCCCCCCCCCCCCCCOCCCOP(=O)(OC)OCC1OC([n+]2cccc(C(N)=O)c2)C(O)C1O (stereo not drawn) [Compound 21, 3-Carbamoyl-1-(3,4-dihydroxy-5-(((methoxy(3-(pentadecyloxy)propoxy)phosphoryl)oxy)methyl)tetrahydrofuran-2-yl)pyridin-1-ium Trifluoroacetate Salt]	1.3	2.4	3.4	2.2	2.1	1.7
CCOP(=O)(OCC)OCC1OC([n+]2cccc(C(N)=O)c2)C(O)C1O (stereo not drawn) [Compound 19, 3-Carbamoyl-1-(5-(((diethoxyphosphoryl)oxy)methyl)-3,4-dihydroxytetrahydrofuran-2-yl)pyridin-1-ium Chloride]	0.8	1.2	0.1	1	1	1
CCC(CC)COC(=O)C(C)NP(=O)(OCC1O[C@@H]([n+]2cccc(C(N)=O)c2)[C@H](O)[C@@H]1O)Oc1ccccc1 (stereo partly drawn) [Compound 9, 2-Ethylbutyl ((((3S,4R,5R)-5-(3-carbamoyl-1λ^4-pyridin-1-yl)-3,4-dihydroxytetrahydrofuran-2-yl)methoxy)(phenoxy)phosphoryl)alaninate Trifluoroacetate Salt]	1.88	1.34	0.96	0.8	0.8	1.3
CC(NP(=O)(OCC1O[C@@H]([n+]2cccc(C(N)=O)c2)[C@H](O)[C@@H]1O)Oc1cccc2ccccc12)C(=O)OCc1ccccc1 (stereo partly drawn) [Compound 8, 1-((2R,3R,4S)-5-(((((1-(Benzyloxy)-1-oxopropan-2-yl)amino)(naphthalen-1-yloxy)phosphoryl)oxy)methyl)-3,4-dihydroxytetrahydrofuran-2-yl)-3-carbamoylpyridin-1-ium Trifluoroacetate Salt]	1.0	0.8	0.8	1.2	1.0	0.9
NC(=O)c1ccc[n+]([C@@H]2OC(COP3(=O)OCCC(c4cc(F)cc(F)c4)O3)[C@@H](O)[C@H]2O)c1.O=C([O-])C(F)(F)F (stereo partly drawn) [Compound 2, 1-((2R,3R,4S)-5-(((4-(3,5-Difluorophenyl)-2-oxido-1,3,2-dioxaphosphinan-2-yl)oxy)methyl)-3,4-dihydroxytetrahydrofuran-2-yl)-1λ^4-pyridine-3-carboxamide Trifluoroacetate Salt]	0.9	1.0	1.4	2.0	1.6	1.8
CC(C)(C)C(=O)SCCOP(=O)(NCc1ccccc1)OCC1OC([n+]2cccc(C(N)=O)c2)C(O)C1O (stereo not drawn) [Compound 6, 1-(5-((((Benzylamino)(2-(pivaloylthio)ethoxy)phosphoryl)oxy)methyl)-3,4-dihydroxytetrahydrofuran-2-yl)-3-carbamoylpyridin-1-ium Trifluoroacetate Salt]	1.3	1.7	2.6	4.3	6.6	3.5

Reference: patent US11464796B2, “Nicotinamide mononucleotide derivatives and their uses” (Metro International Biotech, LLC, priority 2015, dated 2022)
